Common to all, as to assay type: biochemical
For assay [1], the target named is T1, C-terminal α-amidating enzyme AE-I (Xenopus laevis, UniProt P08478).
T1 construct: C-terminal α-amidating enzymes of the present invention can be extracted from the skin of Xenopus laevis; from tissue; host or cells: Xenopus laevis skin
T1 sequence (P08478 37-400 isoform P08478-2 limits assumed): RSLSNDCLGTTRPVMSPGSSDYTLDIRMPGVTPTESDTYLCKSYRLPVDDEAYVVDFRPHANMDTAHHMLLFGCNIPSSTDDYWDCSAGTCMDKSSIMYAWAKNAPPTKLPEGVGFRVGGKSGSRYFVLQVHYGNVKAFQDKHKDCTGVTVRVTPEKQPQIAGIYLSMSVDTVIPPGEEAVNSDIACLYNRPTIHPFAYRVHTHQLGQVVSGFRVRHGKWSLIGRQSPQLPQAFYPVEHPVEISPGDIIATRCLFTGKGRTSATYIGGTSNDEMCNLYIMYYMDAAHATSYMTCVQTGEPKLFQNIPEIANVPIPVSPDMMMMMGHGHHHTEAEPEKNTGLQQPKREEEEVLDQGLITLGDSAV
In words: Effect of substances on enzyme activity of AE-I. The procedure: C-terminal α-amidating enzyme of the present invention is assayed using synthetic peptide [^125 I]-Ac-Tyr-Phe-Gly as a substitute according to the following procedure. [^125 I]-Ac-Tyr-Phe-Gly (1 pmole, 70,000-150,000 cpm) was incubated with an enzyme preparation, in a final volume of 250 μl containing 0.2M Tris-HCl buffer (pH 7.0), 2 μM CuSo4, 0.25 mM ascorbic acid, 25 μg catalase (Boehringer), 0.1% Lubrol (PX type, Nakarai Chemicals). The reaction mixture was kept at 37° C. for 1 to 4 hours. Then 0.75 ml of 1M Tris-HCl buffer (pH 7.0) and 2 ml of the organic phase of an ethyl acetate/water mixture was added. Two phases were mixed vigorously on a Vortex mixer. After centrifugation at 3000 rpm for 3 min, the organic phase thus separated was transferred to another test tube. The radioactivity in organic and aqueous layers was each measured by a gamma scintillation counter. […] The yield of conversion was calculated from the ratio of the radioactivity in ethyl acetate phase to the total radioactivity. In this assay, one unit is defined as an amount of enzyme which converts 50% of added substrate [^125 I]-Ac-Try-Phe-Gly to [^125 I]-Ac-Tyr-Phe-NH2.

The target of assay [2] is T1, C-terminal α-amidating enzyme AE-I. In words: Conversion of substrate peptides to C-terminal α-amidated products by AE-I (reverse-phase HPLC). As to conditions: same procedure as Example 3; rates Tyr-Phe-Gly>Ac-Tyr-Phe-Gly>D-Tyr-Val-Gly>D-Tyr-Gly-Gly. The procedure: The 0.1 μg of the enzyme preparation AE-I prepared in Example 1 was incubated with 4 nmoles of Tyr-Gly-Gly-Phe-Met-Arg-Arg-Val-Gly as a substrate in 250 μl of a 0.2M Tris-HCl buffer (pH 7.0) containing 2 μM CuSO4, 0.25 mM ascorbic acid, 25 μg catalase, and 0.1% Lubrol, at 37° C. for 24 hours. After the reaction was terminated by the addition of 250 μl of 1% trifluoroacetic acid, the reaction mixture was applied to a TSK ODS-120A column (0.4×25 cm; Toyosoda), and elution was carried out using a linear gradient of 12 to 60% CH3 CN in 0.1% trifluoroacetic acid at a flow rate of 1.5 ml/min. The elute was analyzed for absorbance at 210 nm. FIG. 7A represents an elution pattern for a sample of the reaction mixture taken at 0 time, i.e., before the reaction, and FIG. 7B represents an elution pattern for a sample of the reaction mixture taken 24 hours after the reaction has started. […] In FIG. 7, arrows b and a represent positions at which the peaks of authentic substrate and authentic adrenorphin Tyr-Gly-Gly-Phe-Met-Arg-Arg-Val-NH2 respectively appear under the same condition. Adrenorphin corresponds to a peptide wherein C-terminal glycine has been converted to α-amide. Since the positions 1 and 2 match the positions a and b respectively, it is reasonable to assume that the reaction product corresponding to peak 1 is adrenorphin. This means that the enzyme of the present invention amidated the substrate at its C-terminal. To confirm this conclusion, the fraction 1 in FIG. 7 was hydrolyzed in 6M HCl at 110° C. for 24 hours, and the amino acid composition of the hydrolyzate was analyzed using an amino acid analyzer. Moreover, the presence of the C-terminal amide group in the fraction 1 was analyzed by thermolysin digestion followed by thin layer chromatography. All of the results confirmed that the reaction product is adrenorphin.
The same procedure as described in Example 3 was repeated except that, in place of Tyr-Gly-Gly-Phe-Met-Arg-Arg-Val-Gly(FIG. 8Δ), following substrates were used: […]

The target is the same in assay [3]. Kind of assay: Kinetic constants of AE-I from Lineweaver-Burk plots. The following applies: standard conditions. The procedure: C-terminal α-amidating enzyme of the present invention is assayed using synthetic peptide [^125 I]-Ac-Tyr-Phe-Gly as a substitute according to the following procedure. [^125 I]-Ac-Tyr-Phe-Gly (1 pmole, 70,000-150,000 cpm) was incubated with an enzyme preparation, in a final volume of 250 μl containing 0.2M Tris-HCl buffer (pH 7.0), 2 μM CuSo4, 0.25 mM ascorbic acid, 25 μg catalase (Boehringer), 0.1% Lubrol (PX type, Nakarai Chemicals). The reaction mixture was kept at 37° C. for 1 to 4 hours. Then 0.75 ml of 1M Tris-HCl buffer (pH 7.0) and 2 ml of the organic phase of an ethyl acetate/water mixture was added. Two phases were mixed vigorously on a Vortex mixer. After centrifugation at 3000 rpm for 3 min, the organic phase thus separated was transferred to another test tube. The radioactivity in organic and aqueous layers was each measured by a gamma scintillation counter. Under the conditions described above, over 98% of radioactivity of the authentic [^125 I]-Ac-Tyr-Phe-Gly was retained in an aqueous phase and over 98% of radioactivity of the authentic [^125 I]-Ac-Tyr-Phe-NH2 was transferred to an organic phase. The yield of conversion was calculated from the ratio of the radioactivity in ethyl acetate phase to the total radioactivity. In this assay, one unit is defined as an amount of enzyme which converts 50% of added substrate [^125 I]-Ac-Try-Phe-Gly to [^125 I]-Ac-Tyr-Phe-NH2.

Usually Km stands for the substrate concentration at which the rate is half of its maximum.

Square brackets hold non-standard residues; d marks the D form. Ends that are not written are not given here.

In the case of `O=C(O)CN(CCN(CC(=O)O)CC(=O)O)CC(=O)O` [EDTA], in assay [1] (0.1 mM EDTA), the “Effect on enzyme activity” value is on record as “inhibited”.
As for Tyr-Phe-Gly, the “Conversion of substrate by AE-I (FIG. 8)” value in assay [2] is given as “converted to the corresponding des-Gly peptide α-amides”.
Still for that read-out and setting: in the case of “Tyr-Gly-Gly-Phe-Met-Arg-Arg-Val [desamido-adrenorphin]” it was “not affected by the enzyme”.
Same read-out and setting: in the case of [dY]-Val-Gly it was “converted to the corresponding des-Gly peptide α-amides”; in that of YGGFMRRVGRPE [BAM-12P], “not affected by the enzyme”.
With `CCN1C(=O)C=CC1=O` [N-ethylmaleimide], in assay [1] (5 mM N-ethylmaleimide in presence of 1 mM dithiothreitol), the “Effect on enzyme activity inhibited by the thiol compound” value was “restores the enzyme activity”.
With Ac-Tyr-Phe-Gly, the “Conversion of substrate by AE-I (FIG. 8)” value in assay [2] is reported as “converted to the corresponding des-Gly peptide α-amides”. In assay [3], the Km is 0.35 µM and the Vmax was 1.9 nmol/µg/h.
`O=S(=O)([O-])[O-].[Cu+2]` [CuSO4]: in assay [1] (additional 1.2 mM CuSO4 in presence of 1 mM dithiothreitol), the “Effect on enzyme activity inhibited by the thiol compound” value is reported as “restores the enzyme activity”. For the same compound, the “Effect on enzyme activity inhibited by EDTA” value in assay [1] (additional more than 0.12 mM CuSO4 in presence of 0.1 mM EDTA) is listed as “restores the enzyme activity”.
In the case of [dY]-Gly-Gly, the “Conversion of substrate by AE-I (FIG. 8)” value in assay [2] is listed as “converted to the corresponding des-Gly peptide α-amides”.
On to `O[C@H](CS)[C@H](O)CS` (racemic) [dithiothreitol], for which the “Effect on enzyme activity” value in assay [1] (1 mM dithiothreitol) is “inhibited”.
Regarding `[Cu+2]` [Cu^++], the “Requirement of Cu++ cation for enzyme activity” value in assay [1] is “essential”.

The record behind these values is patent publication US4921797A, “C-terminal alpha-amidating enzyme and process for production and use thereof” (Hisayuki Matsuo, priority 1986, dated 1990).
